Reference: patent publication US20230390296A1, “NOVEL TREATMENT AND PREVENTION OF SARCOPENIA-RELATED DISEASES” (KEIO UNIVERSITY, priority 2020, published 2023)
“And” between values parts separate entries of the source, which are not always exact repeats. Identical values can stand only once.

Tests used:
mouse bones = experiment: Bone density (DEXA or ultrasound); assay type: in vivo; conditions: administered versus non-administered mice
Method: This Example tested bone density for mice administered with OK-1 and mice without administration of OK-1 in order to investigate the effect of OK-1 on mouse bones. Bone density was measured using DEXA or ultrasound.
This Example tested bone density for mice administered with C-82 and mice without administration of C-82 in order to investigate the effect of C-82 on mouse bones. Bone density was measured using DEXA or ultrasound.

[1] = test system: muscle of mice without exercise; experiment: Gene analysis (RNA-seq, GO, upstream transcription factor, GSEA) of muscle of administered mice without exercise; assay type: in vivo, mouse
Method: Gene analysis (RNA-seq) was performed in old mice administered with OK-1 with improved muscle strength and muscle mass. The method and reagent used were the following.
The quality of all reads was checked by using FastQC v0.11.8, and low quality reads were removed using Trimomatic (ver 0.38).
LEADING: 20 (remove bases with a quality score of less than 20 from the leading reads), TRAILING: 20, SLIDINGWINDOW: 4:15 (window size 4, average quality 15), MINLEN: 36 (remove reads that are less than […])
Each read obtained after filtering was mapped to reference genome GRCm38 by using STAR (ver 2.7.0.f). Mapping was performed using the default values of STAR.
1) Index preparation • Run Mode; genomeGenerate • Reference; GRCm38 • Annotation file; genecode version M24 • sjdbOverhang; 150 alignment was performed using the index prepared above. In addition, this was performed with default values without options.
To count the number of genes, featuecount (ver 1.6.4) was used to count the number for each gene name defined by a symbol name, where the number was counted in gene symbol units defined in genecode version M24.
The counted numbers were filtered for genes with a count data of 0 in all samples, subjected to TMM normalization using edgeR (ver 3.22.3), and corrected among samples. Initially, for understanding of the overall picture of the data, primary component analysis and clustering analysis were performed using count data after removal of low expression genes.
Differential expression of a pattern designated based on the obtained expression values was compared.
Differentially expressed genes were tested using edgeR. As the definition of differentially expressed gene, uncorrected p. value<0.05 was used as a cut-off value, and Fold Change of “pattern not used” and “2 or more or 0.5 or less” were used as the cut-off for calculation.
Gene enrichment analysis was performed on the resulting differentially expressed gene using gprofiler2 (version 0.1.6).
Expression values after normalization of resulting differentially expressed genes were extracted. Visual heatmap was drawn to study the change. […] This analysis was performed using RcisTarget (ver 1.8.0). RcisTarget performed analysis using a mouse database for 10 kbp upstream of TSS stored in RcisTarget. Details of analysis are the following (cited from https://scenic.aertslab.org/tutorials/RcisTarget.html).
The first step to estimate the over-representation of each motif on the gene-set is to calculate the Area Under the Curve (AUC) for each pair of motif-geneSet. This is calculated based on the recovery curve of the gene-set on the motif ranking (genes ranked decreasingly by the score of motif in its proximity, as provided in the motifRanking database).
The selection of significant motifs is done based on the Normalized Enrichment Score (NES). The NES is calculated—for each motif—based on the AUC distribution of all the motifs for the gene-set [(x-mean)/sd]. Those motifs that pass the given threshold (3.0 by default) are considered significant. […] In this way, the third step of the workflow is to identify which genes (of the gene-set) are highly ranked for each of the significant motifs. These genes were identified by a faster implementation based on an approximate distribution using the average at each rank.
The category of genes with a change in expression identified in Example 2 was analyzed with a software (GSEA), which is different from that in Example 2 (GO) (FIG. 3). Analysis with GSEA was performed as follows. GSEA performed categorization by the regulating gene. This is different from GO, which performs categorization by function.
Data was created on the relationship of activattion+unknown and repression+unknown for regulatory genes and transcription factors installed in TRRUST ver2. Gene enrichment analysis was performed using GSEA (https://www.gsea-msigdb.org/gsea/index.jsp) based on respective gene sets. local gsea-3.0 that starts up within java was used for GSEA.

sarcopenia mouse models [2] = experiment: Metabolic disease markers (LDH, ALT, TG, HDL-C, insulin, glucose, amylase, AST concentrations); assay type: in vivo; conditions: administered versus non-administered sarcopenia mouse models
Method: (§1) Mouse models were divided into two groups. LDH concentration, ALT concentration, TG concentration, HDL-C concentration, insulin concentration, glucose concentration, amylase concentration, AST concentration, and ALT concentration were measured for sarcopenia mouse models administered with OK-1 and sarcopenia mouse models without administration of OK-1.
as §1, with “C-82” for “OK-1”, “C-82.” for “OK-1.”

sarcopenia mouse models [3] = experiment: Brain function behavioral tests (Barnes maze, fear conditioning, object recognition, open field, social behavior); assay type: in vivo; conditions: administered versus non-administered sarcopenia mouse models
Method: (§2) Mouse models were divided into two groups. Short term memory, long term memory, depression, activity level, social interaction, cognitive ability, etc., were tested using a Barnes maze, fear conditioning test, object recognition test, open field test, social behavior test (Crawley version), etc. on sarcopenia mouse models administered with OK-1 and sarcopenia mouse models without administration of OK-1.
These tests are described in http://www.fujita-hu.ac.jp/ to smedsci/behaviorcore/equipment/index.html, Barnes maze, a useful task to assess spatial reference memory in the mice (doi: 10.1038/nprot.2007.390), etc., which can be suitably referenced and practiced.
as §2, with “C-82” for “OK-1”, “C-82.” for “OK-1.”
These tests are described in http://www.fujita-hu.ac.jp/to smedsci/behaviorcore/equipment/index.html, Barnes maze, a useful task to assess spatial reference memory in the mice (doi: 10.1038/nprot.2007.390), etc., which can be suitably referenced and practiced.

[4] = test system: Diabetes mouse models (e.g., KK/TaJcl); experiment: Diabetes mouse model; assay type: in vivo; conditions: administered versus non-administered group
Method: Diabetes mouse models (e.g., KK/TaJcl) were divided into two groups. OK was administered to one of the groups, and OK was not administered to the other group.

[5] = test system: Mice induced to be obese by feeding high fat feed; experiment: High fat feed obese mice (metabolism); assay type: in vivo, mouse; conditions: administered versus non-administered group
Method: Mice induced to be obese by feeding high fat feed were divided into two groups. OK was administered to one of the groups, and OK was not administered to the other group.

Row | Structure (SMILES) | bone density (mouse bones) | change in gene expression in muscles ([1]; C-82 administration, same method as Example 2) | pancreatic function, liver function and salivary gland function (sarcopenia mouse models [2]) | short term memory, long term memory, depression, activity level, social interaction, cognitive ability (sarcopenia mouse models [3]) | gene group associated with OK-1: genes associated with regulation of muscle without exercise [1] | upstream factors from upstream transcription factor analysis [1] | gene group associated with OK-1 by GSEA: involved in increase in muscle ([1]; GSEA, TRRUST ver2) | genes decreased (downregulated expression) significantly in muscle ([1]; OK-1 administration, p<0.05) | genes increased (upregulated expression) significantly in muscle ([1]; OK-1 administration, p<0.05) | insulin secretion and insulin resistance [4] | metabolism [5]
1 | C[C@H]1[C@H]2N(C(=O)CN(C)N2C(=O)NCc2ccccc2)[C@@H](Cc2ccc(O)cc2)C(=O)N1Cc1cccc2cccnc12 [C-82, (6S,9S)—N-benzyl-6-(4-hydroxybenzyl)-2,9-dimethyl-4,7-dioxo-8-(quinolin-8-ylmethyl)hexahydro-2H-pyrazino[2,1-c][1,2,4]triazine-1(6H)-carboxamide] | bone density is improved | achieves the same result as OK-1 | pancreatic function, liver function, and salivary gland function are improved | short term memory, long term memory, depression, activity level, social interaction, and cognitive ability are improved | – | – | – | – | – | – | –
2 | C[C@H]1[C@H]2N(C(=O)CN(C)N2C(=O)NCc2ccccc2)[C@@H](Cc2ccc(OP(=O)(O)O)cc2)C(=O)N1Cc1cccc2cccnc12 [OK-1] | bone density is improved | – | pancreatic function, liver function, and salivary gland function are improved | short term memory, long term memory, depression, activity level, social interaction, and cognitive ability are improved | Ppara, Pou2f2, Foxo1, Pparg, Pou2f1, Trp63, Sp1, Tcf3, Zeb1, Srebf1, Sp3, Ebf1, Mycn, and Pbx1 | Hnf4a and Gata4, Nrf1, and Hnf1a | IRF1, NFE2L2, PPARG, FOXO1, CEBPB, PPARA, CEBPA, STAT1, STAT5A, MYOD1, REL, NFKB1, SPI1, IRF8, SP1, and FOXM1 | 445 genes and 595 genes | 206 genes and 181 genes | at least one of insulin secretion and insulin resistance is improved | metabolism is improved
